Reference: patent US4225595A, “Piperazine phosphates and phosphonate insecticides” (priority 1979, dated 1980)
Values after ≈ are worked out from the molar mass of the structure shown.

Legend:
[1] = tested on: Southern House Mosquito Larvae (Culex pipiens quinquefasciatus); test: Southern House Mosquito larvae (M) assay, mortality 48 hours after treatment; format: in vivo; conditions: third-instar larvae in aqueous solution, initial 1 ppm, read-out: LD50 M
Procedure: (§1) Screening was initiated at a maximal concentration level believed to be injurious to the insect population. The initial level should not be understood as representing a maximum at which a viable test for insecticidal activity can be conducted.
Tobacco budworms were tested in the same manner as the cabbage looper. Romaine lettuce (Latuca sativa) leaves provided the substrate. Southern House Mosquito Larvae (Culex pipiens quinquefasciatus), (M)
Ten third-instar larvae were placed in a six ounce wax paper cup containing 100 ml of an aqueous solution of the test compounds at a concentration of 1 ppm. The treated larvae were stored at 70° F. (21.5° C.) and mortality was recorded 48 hours after treatment. Two-Spotted Mite [Tetranychus urticae (Koch)], (2SM)
(§2) A less than 50% mortality rate at the initial concentration is indicated by a "greater than" sign (>). An approximately 50% mortality rate is indicated by the initial concentration rate. Other results are the dilutions at which an LD50 was achieved.

[2] = tested on: Tobacco Budworm [Heliothis virescens (Fabricius)]; conditions: leaf dip, Romaine lettuce leaves
Procedure: Mortality of the larvae was recorded 48 hours later. A piece of synthetic media was added to the dishes containing surviving larvae. […] Test concentrations ranged from 0.05% down to that at which approximately 50% mortality occurs.

[3] = tested on: Black Bean Aphid [Aphis fabae (Scop.)]; test: Black Bean Aphid (BBA) plant spray assay, mortality after three days; format: in vivo; conditions: spray on infested nasturtium plants
Text: (§3) Screening was initiated at a maximal concentration level believed to be injurious to the insect population. The initial level should not be understood as representing a maximum at which a viable test for insecticidal activity can be conducted. […]
(§4) Nasturtium plants, Tropaeolum sp., approximately five centimeters (cm) high were transplanted into sandy loam soil in three-inch clay pots. Each pot was infested with 25-50 black bean aphids of mixed ages. Twenty-four hours later the pots were sprayed to the point of run-off with 50--50 acetone-water solutions of the test compounds.
(§5) Mortality rates were recorded after the infested plants had been held in the greenhouse for three days. Test concentrations ranged from 0.05% down to that at which 50% mortality occurs. Green Peach Aphid [Myzus persicae (Sulzer)], (GPA)
as §2

[4] = tested on: Lygus Bug [Lygus hesperus (Knight)]; test: Lygus Bug (LB) direct spray assay, mortality 48 hours later; format: in vivo; conditions: adults, initial 0.05%
Procedure: as §1
(§6) Mobile insects, such as houseflies, German cockroaches, Lygus bugs, were contained for treatment in circular cardboard cages covered with cellophane on the bottom and tulle netting on the top.
(§7) Test compounds were diluted in a 50--50 acetonewater solution. Two cubic centimeters (cc) of the compound solutions were sprayed through a DeVilbiss type EGA hand spray gun into cages each containing 10 one-month-old German cockroach nymphs.
Lygus Bug [Lygus hesperus (Knight)], (LB)--Direct Spray Assay
(§8) The species was treated in the same manner as the German cockroach. The cages contained one string beam pod and 10 adult Lygus bugs. The percent mortality was recorded 48 hours later. Test concentrations ranged from 0.05% down to that at which approximately 50% mortality occurs. Saltmarsh Caterpillar [Estigmene acrea (Drury)], (SMC)--Leaf Dip Assay
as §2

[5] = tested on: Two-Spotted Mite [Tetranychus urticae (Koch)]; test: Two-Spotted Mite (2SM) plant dip assay, mortality seven days later; format: in vivo; conditions: for LD50 2SM Adults: adult mites; for LD50 2SM Eggs: eggs (nymphs hatching after treatment)
Text: as §3
Pinto bean plants (Phaseolus vulgaris) approximately 10 cm high were transplanted into sandy loam soil in three-inch clay pots. The plants were thoroughly infested with two-spotted mites of mixed ages and sexes. Twenty-four hours after infestation the plants were inverted and dipped for 2-3 seconds in 50--50 acetone-water solutions of the test compounds.
Mortality ratings for both adult mites and nymphs hatching after treatment were taken seven days later. Test concentrations ranged from 0.05% down to that at which 50% mortality occurs.
as §2

[6] = tested on: Cabbage Looper [Trichoplusia ni (Hubner)]; test: Cabbage Looper (CL) leaf dip assay; format: in vivo; conditions: squash cotyledons, initial 0.1%
Procedure: as §1
(§9) Test compounds were diluted in a 50--50 acetone-water solution. Approximately 1×1.5 inch sections of curly dock (Rumex crispus) leaves were immersed in the test solution for 2-3 seconds. After drying on a wire screen, the leaves were placed in petri dishes containing a moistened piece of filter paper. Each dish was infested with 5 secondinstar saltmarsh larvae.
(§10) Mortality of the larvae was recorded 48 hours later. A piece of synthetic media was added to the dishes containing surviving larvae. The larvae were then observed for 5 additional days for delayed effects of the test compounds. Test concentrations ranged from 0.05% down to that at which approximately 50% mortality occurs. Cabbage Looper [Trichoplusia ni (Hubner)], (CL)
The effectiveness of the compounds was tested in the same manner as for the saltmarsh caterpillar with two exceptions. Cotyledons of hyzini squash (Calabacita abobrinha, were substituted for curly dock leaves and the initial test concentration was 0.1%. Tobacco Budworm [Heliothis virescens (Fabricius)], (TBW)
as §2

[7] = tested on: Green Peach Aphid [Myzus persicae (Sulzer)]; test: Green Peach Aphid (GPA) plant spray assay; format: in vivo; conditions: spray on infested radish plants, three days
Text: as §1, §4, §5
(§11) The insecticidal properties were tested in the same manner as for black beam aphids with the substitution of the nasturtiums by radish plants, Rhaphanus sativus. German Cockroach [Blatella germanica (Linne)], (GR)--Direct Spray
as §2

[8] = tested on: Housefly [Musca domestica (Linn.)]; conditions: topical, 48 h
Procedure: Housefly [Musca domestica (Linn.)], (HF)--Contact Residue Assay
Test compounds were diluted in acetone and aliquots were pipetted onto the bottom of 55×15 millimeter (mm) aluminum dishes. One ml of acetone containing 0.02% peanut oil was added to each dish to insure even spreading. After all solvents had evaporated the dishes were placed in cages each containing 25 one to two day old female houseflies. Each cage contained a sugar-water cotton plug for sustanence of the flies.
Mortality rates were recorded after 48 hours. Test levels ranged from 10 μ/25 .female. houseflies down to that at which approximately 50% mortality occurs.

[9] = tested on: German Cockroach [Blatella germanica (Linne)]; test: German Cockroach (GR) direct spray, mortality 7 days later; format: in vivo; conditions: one-month-old nymphs, initial 0.1%
Procedure: as §1, §6, §11, §7
The percent mortality was recorded 7 days later. Test concentrations ranged from 0.1% down to that at which approximately 50% mortality occurs.
as §2

[10] = tested on: Saltmarsh Caterpillar [Estigmene acrea (Drury)]; test: Saltmarsh Caterpillar (SMC) leaf dip assay; format: in vivo; conditions: curly dock leaves, second-instar larvae, 48 hours + 5 days
Procedure: as §1, §8, §9, §10, §2

Row | SMILES | LC50 [1] [µg/mL] | LD50 TBW [2] | LD50 BBA [3] | LD50 LB [4] | LD50 2SM Adults [5] | LD50 2SM Eggs [5] | LD50 CL [6] | LD50 GPA [7] | LD50 HF [8] [μg/25] | LD50 GR [9] | LD50 SMC [10]
1 | CCOP(=S)(OCC)SCC(=O)N1CCN(C(=O)Oc2ccccc2)CC1 [Compound 23, 1-N-phenyloxycarbo-4-N-O,O-diethylphosphorodithioylacetyl piperazine] | 1 (≈ 2.31 µM) | > .1% | .002% | > .05% | < .05% | < .05% | .1% | .008% | > 10 | > .1% | –
2 | COP(=S)(OC)SCC(=O)N1CCN(C(=O)SC(C)(C)C)CC1C (stereo not shown) [Compound 32, 1-N-carbo-t-butylthio-4-N'-O,O-dimethylphosphorodithioylacetyl-3-methyl piperazine] | > 1 | > .05% | > .05% | – | > .05% | > .05% | – | – | > 10 | – | –
3 | CCOC(=O)N1CCN(C(=O)CSP(=S)(OC)OC)C(C)C1 (stereo not shown) [Compound 11, 1-N-ethoxycarbo-4-N'-O,O-dimethylphosphorodithioylacetyl-3-methyl piperazine] | 1 (≈ 2.7 µM) | .1% | .002% | > .05% | < .05% | < .05% | > .1% | .03% | > 10 | > .1% | .05%
4 | COP(=S)(OC)SCC(=O)N1CCN(C(=O)OC(C)C)CC1 [Compound 18, 1-N-ispropoxycarbo-4-N-O,O-dimethylphosphorodithioylacetyl piperazine] | 1 (≈ 2.7 µM) | > .1% | .0005% | > .05% | < .05% | < .05% | > .1% | .005% | > 10 | > .1% | > .05%
5 | CCOP(=O)(OCC)SCC(=O)N1CCN(C(=O)SC)CC1 [Compound 28, 1-N-methylthiocarbo-4-N-O,O-diethylphosphoromonothioylacetyl piperazine] | > 1 | > .1% | .0002% | > .05% | < .05% | < .05% | > .1% | .008% | > 10 | > .1% | > .05%
6 | CCOP(=O)(OCC)SCC(=O)N1CCN(C(=O)OC(C)C)CC1 [Compound 20, 1-N-isopropoxycarbo-4-N-O,O-diethylphosphoromonothioylacetyl piperazine] | > 1 | .1% | .0005% | > .05% | < .05% | < .05% | > .1% | .008% | > 10 | > .1% | > .05%
7 | CCOC(=O)N1CCN(C(=O)CSP(=O)(OCC)OCC)C(C)C1 (stereo not shown) [Compound 14, 1-N-carboethoxy-4-N'-O,O-diethylphosphoromonothioylacetyl-3-methyl piperazine] | > 1 | > .1% | .0005% | > .05% | < .05% | < .05% | > .1% | .005% | > 10 | > .1% | –
8 | CCOP(=S)(OCC)SCC(=O)N1CCN(C(=O)SC(C)(C)C)CC1C (stereo not shown) [Compound 33, 1-N-carbo-t-butylthio-4-N'-O,O-diethylphosphorodithioylacetyl-3-methyl piperazine] | – | > .05% | > .005% | – | – | – | – | – | > 10 | – | –
9 | CCOC(=O)N1CCN(C(=O)CSP(=S)(OC)OC)CC1 [Compound 10, 1-N-ethoxycarbo-4-N-O,O-dimethylphosphorodithioylacetyl piperazine] | 1 (≈ 2.81 µM) | > .05% | .0002% | > .05% | .002% | .005% | > .1% | .002% | > 10 | > .1% | –
10 | CCOP(=S)(OCC)SCC(=O)N1CCN(C(=O)OC)CC1 [Compound 3, 1-N-methoxycarbo-4-N-O,O-diethylphosphorodithioylacetyl piperazine] | > 1 | > .1% | .001% | > .05% | < .05% | < .05% | > .1% | .01% | > 10 | > .1% | –
11 | CCOP(=S)(OCC)SCC(=O)N1CCN(C(=O)SC)CC1 [Compound 27, 1-N-methylthiocarbo-4-N-O,O-diethylphosphorodithioylacetyl piperazine] | > 1 | > .1% | .001% | > .05% | < .05% | < .05% | > .1% | .01% | > 10 | > .1% | –
